# Test results taken from patent US20050112573A1, “Method of detecting toxic substance” (priority 2001, published 2005).
# Test system: yeast genes (level of expressed mRNA)
# Test: DNA chip analysis of expressed mRNA of yeast genes after 2 h culture with a toxic chemical substance
# Format: cell-based, Saccharomyces cerevisiae S288C
# In short: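 Values are treated-to-control fluorescence ratios from a whole-yeast-genome DNA chip (65° C, over 12 h hybridization) using Cy3/Cy5-labelled cDNA from mRNA. Log-phase S288C cells in YPD at 25° C were exposed 2 h to a toxicant at sublethal, growth-inhibiting concentration.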
substance,measurement,setting,value
Na2As [(1)],The level of expressed mRNA in the presence of chemical substance/,"yeast gene YNL074C, ratio to control without chemical substance, 2 h culture",0.9
same,The level of expressed mRNA in the presence of chemical substance/,"yeast gene YNL092W, ratio to control without chemical substance, 2 h culture",1.3
same,The level of expressed mRNA in the presence of chemical substance/The level of expressed mRNA in the absence of chemical substance,yeast gene YNL093W,2.1
same,The level of expressed mRNA in the presence of chemical substance/,"yeast gene YNL115C, ratio to control without chemical substance, 2 h culture",0.7
same,The level of expressed mRNA in the presence of chemical substance/,"yeast gene YNL156C, ratio to control without chemical substance, 2 h culture",1.1
same,The level of expressed mRNA in the presence of chemical substance/,"yeast gene YNL234W, ratio to control without chemical substance, 2 h culture",1.1
same,The level of expressed mRNA in the presence of chemical substance/,"yeast gene YNL281W, ratio to control without chemical",1.0
same,The level of expressed mRNA in the presence of chemical substance/,"yeast gene YNL305C, ratio to control without chemical",0.9
same,The level of expressed mRNA in the presence of chemical substance/The level of expressed mRNA in the absence of chemical substance,yeast gene YNL333W,1.0
same,The level of expressed mRNA in the presence of chemical substance/The level of expressed mRNA in the absence of chemical substance,yeast gene YNR010W,1.3
same,The level of expressed mRNA in the presence of chemical substance/,"yeast gene YNR068C, ratio to control without chemical",1.2
same,The level of expressed mRNA in the presence of chemical substance/The level of expressed mRNA in the absence of chemical substance,yeast gene YNR069C,1.5
same,The level of expressed mRNA in the presence of chemical substance/in the absence of chemical substance,yeast gene YNR072W,1.1
same,The level of expressed mRNA in the presence of chemical substance/The level of expressed mRNA in the absence of chemical substance,yeast gene YOL013C,0.9
same,The level of expressed mRNA in the presence of chemical substance/,"yeast gene YOL032W, ratio to control without chemical",1.3
same,The level of expressed mRNA in the presence of chemical substance/,"yeast gene YOL036W, ratio to control without chemical",0.8
same,The level of expressed mRNA in the presence of chemical substance/,"yeast gene YOL047C, ratio to control without chemical",1.4
same,The level of expressed mRNA in the presence of chemical substance/,"yeast gene YOL071W, ratio to control without chemical",1.3
same,The level of expressed mRNA in the presence of chemical substance/,"yeast gene YOL082W, ratio to control without chemical",1.0
same,The level of expressed mRNA in the presence of chemical substance/,"yeast gene YOL083W, ratio to control without chemical",1.1
same,The level of expressed mRNA in the presence of chemical substance/in the absence of chemical substance,yeast gene YOL096C,1.1
same,The level of expressed mRNA in the presence of chemical substance/,"yeast gene YOL117W, ratio to control without chemical",1.0
same,The level of expressed mRNA in the presence of chemical substance/,"yeast gene YOL131W, ratio to control without chemical",1.0
same,The level of expressed mRNA in the presence of chemical substance/,"yeast gene YOL150C, ratio to control without chemical substance, 2 h culture",4.1
same,The level of expressed mRNA in the presence of chemical substance/,"yeast gene YOL162W, ratio to control without chemical",2.0
same,The level of expressed mRNA in the presence of chemical substance/The level of expressed mRNA in the absence of chemical substance,yeast gene YOL164W,0.9
same,The level of expressed mRNA in the presence of chemical substance/,"yeast gene YOR019W, ratio to control without chemical",2.9
same,The level of expressed mRNA in the presence of chemical substance/The level of expressed mRNA in the absence of chemical substance,yeast gene YOR036W,1.8
same,The level of expressed mRNA in the presence of chemical substance/The level of expressed mRNA in the absence of chemical substance,yeast gene YOR117W,0.8
same,The level of expressed mRNA in the presence of chemical substance/The level of expressed mRNA in the absence of chemical substance,yeast gene YOR124C,0.6
same,The level of expressed mRNA in the presence of chemical substance/The level of expressed mRNA in the absence of chemical substance,yeast gene YOR132W,0.9
same,The level of expressed mRNA in the presence of chemical substance/The level of expressed mRNA in the absence of chemical substance,yeast gene YOR157C,1.0
same,The level of expressed mRNA in the presence of chemical substance/in the absence of chemical substance,yeast gene YOR180C,0.8
same,The level of expressed mRNA in the presence of chemical substance/The level of expressed mRNA in the absence of chemical substance,yeast gene YOR181W,1.0
same,The level of expressed mRNA in the presence of chemical substance/The level of expressed mRNA in the absence of chemical substance,yeast gene YOR185C,1.1
same,The level of expressed mRNA in the presence of chemical substance/,"yeast gene YOR197W, ratio to control without chemical",0.8
same,The level of expressed mRNA in the presence of chemical substance/The level of expressed mRNA in the absence of chemical substance,yeast gene YOR198C,1.0
same,The level of expressed mRNA in the presence of chemical substance/The level of expressed mRNA in the absence of chemical substance,yeast gene YOR259C,0.8
same,The level of expressed mRNA in the presence of chemical substance/The level of expressed mRNA in the absence of chemical substance,yeast gene YOR261C,1.0
same,The level of expressed mRNA in the presence of chemical substance/The level of expressed mRNA in the absence of chemical substance,yeast gene YOR288C,0.9
same,The level of expressed mRNA in the presence of chemical substance/The level of expressed mRNA in the absence of chemical substance,yeast gene YOR355W,0.7
same,The level of expressed mRNA in the presence of chemical substance/in the absence of chemical substance,yeast gene YOR363C,0.8
same,The level of expressed mRNA in the presence of chemical substance/The level of expressed mRNA in the absence of chemical substance,yeast gene YOR383C,0.9
same,The level of expressed mRNA in the presence of chemical substance/,"yeast gene YPL087W, ratio to control without chemical",1.0
same,The level of expressed mRNA in the presence of chemical substance/The level of expressed mRNA in the absence of chemical substance,yeast gene YPL089C,1.2
same,The level of expressed mRNA in the presence of chemical substance/The level of expressed mRNA in the absence of chemical substance,yeast gene YPL109C,1.1
same,The level of expressed mRNA in the presence of chemical substance/The level of expressed mRNA in the absence of chemical substance,yeast gene YPL149W,1.5
same,The level of expressed mRNA in the presence of chemical substance/The level of expressed mRNA in the absence of chemical substance,yeast gene YPL154C,0.7
same,The level of expressed mRNA in the presence of chemical substance/,"yeast gene YPL196W, ratio to control without chemical",1.3
same,The level of expressed mRNA in the presence of chemical substance/,"yeast gene YPL206C, ratio to control without chemical",1.0
same,The level of expressed mRNA in the presence of chemical substance/,"yeast gene YPL222W, ratio to control without chemical",0.9
same,The level of expressed mRNA in the presence of chemical substance/,"yeast gene YPR023C, ratio to control without chemical",1.2
same,The level of expressed mRNA in the presence of chemical substance/The level of expressed mRNA in the absence of chemical substance,yeast gene YPR103W,0.7
same,The level of expressed mRNA in the presence of chemical substance/The level of expressed mRNA in the absence of chemical substance,yeast gene YPR108W,0.8
same,The level of expressed mRNA in the presence of chemical substance/,"yeast gene YPR151C, ratio to control without chemical",2.3
same,The level of expressed mRNA in the presence of chemical substance/in the absence of chemical substance,yeast gene YPR184W,1.2
